The target of test [1] is T1, mOREG (Mus musculus, UniProt Q920P2).
T1 construct: The mOR-EG full-length construct, containing N-terminal Flag/Rho tags; only in the L-EG and L-R-EG constructs) (N, cleaved yes); expressed in transfected cells; host or cells: HEK293T
T1 sequence (Q920P2 1-313): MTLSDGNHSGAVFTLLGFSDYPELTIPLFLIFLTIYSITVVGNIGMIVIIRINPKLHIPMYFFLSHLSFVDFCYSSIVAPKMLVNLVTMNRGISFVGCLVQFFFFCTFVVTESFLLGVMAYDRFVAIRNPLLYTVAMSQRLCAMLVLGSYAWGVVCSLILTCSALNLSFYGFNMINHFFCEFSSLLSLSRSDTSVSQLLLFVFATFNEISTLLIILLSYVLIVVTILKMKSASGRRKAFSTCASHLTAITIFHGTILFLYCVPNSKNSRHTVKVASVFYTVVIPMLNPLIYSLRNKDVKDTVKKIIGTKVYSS
The test can be described thus: CRE luciferase reporter assay (Firefly:Renilla ratio), mOREG constructs. In kind it is cell-based, murine. The note with it: Rho-mOREG, Lucy-mOREG, no RTP1S, 100-300 μM eugenol. The method, then:
The luciferase assay was performed as previously described. Briefly, ORs were transfected into HEK293T cells along with constructs encoding for CREB-dependent luciferase (Firefly) and a constitutively expressed luciferase (Renilla). OR activation leads to a rise in cAMP which drives an increase in Firefly luciferase expression. Firefly activity is normalized to the activity of the Renilla luciferase to control for variation in cell number and transfection efficiency. Data were collected using a FLUOstar Omega automated platereader (BMG LabTech, Cary, N.C.). For some experiments, RTP1S was also transfected.
One-way ANOVA analysis followed by the Student-Newman Keuls test was performed on the luciferase reporter assay to compare the doses of isovaleric acid (0.1-5 mM) or eugenol (100-300 μM) to the non-treated control (0 μM). As each condition was performed in triplicate, the analyses were done with an n=3, and P values ≦0.05 were deemed significant. One-way ANOVE followed by Student-Newman Keuls was also used to analyze the surface expression data in FIG. 7. […]
As mOREG is one of the ORs that reach the cell surface under every condition tested, we expressed the OR with and without the Lucy and Rho tags and assessed its response to eugenol.

Test [2] deals with T2, Olfr691 (Mus musculus, UniProt Q8VGW5).
T2 sequence (Q8VGW5 1-322): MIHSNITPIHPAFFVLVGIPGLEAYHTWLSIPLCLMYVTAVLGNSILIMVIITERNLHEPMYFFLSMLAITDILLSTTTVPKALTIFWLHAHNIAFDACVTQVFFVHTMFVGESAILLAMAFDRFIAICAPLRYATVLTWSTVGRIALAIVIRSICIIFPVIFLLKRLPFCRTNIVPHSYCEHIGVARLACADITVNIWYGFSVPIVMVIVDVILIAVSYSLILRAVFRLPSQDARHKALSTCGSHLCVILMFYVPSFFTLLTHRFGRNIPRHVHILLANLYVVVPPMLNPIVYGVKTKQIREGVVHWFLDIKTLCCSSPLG
Put plainly: CRE luciferase reporter assay (Firefly:Renilla ratio), Olfr691 constructs. The note with it: 0.1-5 mM isovaleric acid. Background: A reporter such as luciferase makes a cellular process visible.

Molecules are shown by their SMILES. Entries after “also recorded” stand apart in the source; their conditions may differ.

In the case of `C=CCc1ccc(O)c(OC)c1` [eugenol], the “OR activation (Firefly:Renilla ratio)” value in test [1] is recorded as “all concentrations of eugenol significantly activated; also recorded: dose-dependent activation”.
`CC(C)CC(=O)O` [isovaleric acid]: the “OR activation (Firefly:Renilla ratio)” value in test [2] (Lucy-Rho-Olfr691 with and without RTP1S) is “responded to isovaleric acid in a dose-dependent manner”; in test [2] (Rho-Olfr691 co-expressed with RTP1S) it was “dose-dependent increase in the Firefly:Renilla ratio”; in test [2] (Rho-Olfr691 without RTP1S), “no concentrations of isovaleric acid activated R-691; also recorded: not significantly activated at any concentration”.

Source of the values: patent US20150087053A1, “COMPOSITIONS AND METHODS FOR INCREASING THE EXPRESSION AND SIGNALLING OF PROTEINS ON CELL SURFACES” (THE JOHNS HOPKINS UNIVERSITY, priority 2013, published 2015).
